Patent publication US12501899B2, “Mite infestation treatment” (priority 2019, dated 2025)
Where two headings read alike, the source gives them in different places.

Experiments:
[1] = tested on: Ixodes ricinus; test: Oral acaricidal test on ticks in membrane feeding wells with treated blood; format: in vivo; conditions: for average percentage of affected adult ticks (convulsion, morbidity or death of ticks): 100 ppm oral; for mortality at 100 ppm: Ixodes ricinus, po
Procedure, shortened: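 Ixodes ricinus nymphs and adults (batches of 12) fed through silicone membranes on ATP-enriched blood at 37 °C; after attachment (24 h), compounds at 1, 10, 100 ppm in 0.1% DMSO added for 24 h, blood changed at 12 h. Mortality, attachment and convulsions scored at 1–96 h.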

[2] = tested on: Rhipicephalus sanguineus; test: Topical acaricidal test on brown dog ticks; format: in vivo; conditions: 168 h, 0.5 μl per tick, after 7 days of treatment
Procedure, shortened: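 Second-stage ticks, ten per container, CO2-anaesthetised 10 s, then dosed topically on the scutum with up to 0.5 μl at 1–1000 ppm; triplicates at 23±3 °C with humidity. Live, knocked-down and dead counted daily for 7 days; mean percentages with SE and ANOVA.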

With `Cc1ccc(/N=C/N(C)/C=N/c2ccc(C)cc2C)c(C)c1` [Amitraz] the “average percentage of affected adult ticks (convulsion, morbidity or death of ticks)” value ([1]; adult ticks, 1 h) was 66.8%, the “average percentage of affected adult ticks (convulsion, morbidity or death of ticks)” value ([1]; adult ticks, 3 h) was 56.2% and the “average percentage of affected adult ticks (convulsion, morbidity or death of ticks)” value ([1]; adult ticks, 6 h) was 53.7%. For the same molecule, the “average percentage of affected adult ticks (convulsion, morbidity or death of ticks)” value ([1]; adult ticks, 12 h) was 56.2%, the “average percentage of affected adult ticks (convulsion, morbidity or death of ticks)” value ([1]; adult ticks, 24 h) was 66.5% and the “average percentage of affected adult ticks (convulsion, morbidity or death of ticks)” value ([1]; adult ticks, 48 h) was 83.1%. For the same molecule, the “average percentage of affected adult ticks (convulsion, morbidity or death of ticks)” value ([1]; adult ticks, 72 h) was 100.0%, the “average percentage of affected adult ticks (convulsion, morbidity or death of ticks)” value ([1]; adult ticks, 96 h) was 100.0% and the “detachment of adult ticks (in words)” value ([1]; 100 ppm, adult ticks) was “strong detachment”. The “average percentage of attached adult ticks” value ([1]; 100 ppm, adult ticks, 1 h) was 66.8%, the “average percentage of attached adult ticks” value ([1]; 100 ppm, adult ticks, 3 h) was 56.2% and the “average percentage of attached adult ticks” value ([1]; 100 ppm, adult ticks, 6 h) was 53.7%. The “average percentage of attached adult ticks” value ([1]; 100 ppm, adult ticks, 12 h) was 53.7%, the “average percentage of attached adult ticks” value ([1]; 100 ppm, adult ticks, 24 h) was 53.7% and the “average percentage of attached adult ticks” value ([1]; 100 ppm, adult ticks, 48 h) was 53.7%. For the same molecule, the “average percentage of attached adult ticks” value ([1]; 100 ppm, adult ticks, 72 h) was 53.7%, the “average percentage of attached adult ticks” value ([1]; 100 ppm, adult ticks, 96 h) was 53.7% and the “effect on nymphs (convulsion, morbidity or death), in words” value ([1]; 100 ppm, nymphs, compared with SN0305, SN0306, SN0307) was “comparable result”. For the same molecule, the mortality at 100 ppm ([1]; adult ticks, 100 ppm, 1 h, read-out: average percentage of adult tick mortality (moribund or dead adult ticks)) was 0%, the mortality at 100 ppm ([1]; adult ticks, 100 ppm, 3 h, read-out: average percentage of adult tick mortality (moribund or dead adult ticks)) was 2.8% and the mortality at 100 ppm ([1]; adult ticks, 100 ppm, 6 h, read-out: average percentage of adult tick mortality (moribund or dead adult ticks)) was 10.1%. It also gave a mortality at 100 ppm ([1]; adult ticks, 100 ppm, 12 h, read-out: average percentage of adult tick mortality (moribund or dead adult ticks)) of 17.4%, a mortality at 100 ppm ([1]; adult ticks, 100 ppm, 24 h, read-out: average percentage of adult tick mortality (moribund or dead adult ticks)) of 27.7% and a mortality at 100 ppm ([1]; adult ticks, 100 ppm, 48 h, read-out: average percentage of adult tick mortality (moribund or dead adult ticks)) of 58.9%. The mortality at 100 ppm ([1]; adult ticks, 100 ppm, 72 h, read-out: average percentage of adult tick mortality (moribund or dead adult ticks)) was 84.6%, the mortality at 100 ppm ([1]; adult ticks, 100 ppm, 96 h, read-out: average percentage of adult tick mortality (moribund or dead adult ticks)) was 97.5% and the mortality at 100 ppm ([1]; nymphs, 100 ppm, 1 h, read-out: average percentage of mortality of tick nymphs (moribund or dead nymphs)) was 0%. The mortality at 100 ppm ([1]; nymphs, 100 ppm, 3 h, read-out: average percentage of mortality of tick nymphs (moribund or dead nymphs)) was 14%, the mortality at 100 ppm ([1]; nymphs, 100 ppm, 6 h, read-out: average percentage of mortality of tick nymphs (moribund or dead nymphs)) was 38.7% and the mortality at 100 ppm ([1]; nymphs, 100 ppm, 12 h, read-out: average percentage of mortality of tick nymphs (moribund or dead nymphs)) was 74.9%. It also gave a mortality at 100 ppm ([1]; nymphs, 100 ppm, 24 h, read-out: average percentage of mortality of tick nymphs (moribund or dead nymphs)) of 100%, a mortality at 100 ppm ([1]; nymphs, 100 ppm, 48 h, read-out: average percentage of mortality of tick nymphs (moribund or dead nymphs)) of 100% and a mortality at 100 ppm ([1]; nymphs, 100 ppm, 72 h, read-out: average percentage of mortality of tick nymphs (moribund or dead nymphs)) of 100%. For the same molecule, the mortality at 100 ppm ([1]; nymphs, 100 ppm, 96 h, read-out: average percentage of mortality of tick nymphs (moribund or dead nymphs)) was 100%, the mortality at 1 ppm ([2]; 1 ppm topical) was 30% and the mortality at 10 ppm ([2]; 10 ppm topical) was 46.7%. For the same molecule, the mortality at 100 ppm ([2]; 100 ppm topical) was 96.7% and the mortality at 1000 ppm ([2]; 1000 ppm topical) was 100%.
